Source: US6608088B1, “Use of donerezil for the treatment of functional and/or organic pain syndromes” (priority 1998, dated 2003)
Counter-ions that a name gives are not always drawn.

Columns and labels:
[1] = tested on: primary fibromyalgia; assay: Treatment of patients with primary fibromyalgia; assay type: in vivo; conditions: 16 patients, same conditions as migraine tests (5 mg daily)
Source text: Systemic pain of muscles, tendons, viscera (oesophagus, stomach, colon); these syndromes are considered particularly difficult to hale.

[2] = tested on: pain syndromes caused by denervation or amputation; assay: Treatment of patients with pain syndromes caused by denervation; assay type: in vivo; conditions: five of nine patients, no advantage after antiinflammatory analgesics or opioids; same conditions as above (5 mg daily)
Procedure: In the pain syndromes caused by denervation or amputation pain develops on the limb or body part which is denervated and therefore is insensible to nociceptive stimuli (“painful anaesthesia”).
Nine patients who had no advantages after treatment with antiinflammatory analgesica or opioids were tested in the same conditions as above described.

[3] = tested on: migraine attacks longer than 72 h; assay: Acute treatment of patients with migraine attacks longer than 72 h; assay type: in vivo; conditions: 8 patients, 20 mg acutely given
[4] = human, in vivo

With `COc1cc2c(cc1OC)C(=O)C(CC1CCN(Cc3ccccc3)CC1)C2` (centres unmarked) [Donepezil hydrochloride, 1H-Inden-1-one, 2,3-dihydro-5,6-dimethoxy-2-[[1-(phenylmethyl)4-piperidinyl]methyl]-, hydrochloride] the “cases treated with improvement of the patient's conditions” value [1] was 60%, the “cases with total disappearance of the pain” value [1] was 10% and the improvement of conditions [2] was 50-80%. For the same compound, the “results of acute treatment of migraine attacks” value [3] was “highly satisfactory” and the “tolerance to the treatment” value [4] was “high tolerance”.
